Assay results published in ChEMBL document CHEMBL1743141, “Membrane transporters in drug development” (Nat Rev Drug Discov, 2010).

Columns and labels:
Assay type in all cases: ADME
[1] = biological target: ATP-dependent translocase ABCB1 (Homo sapiens, UniProt P08183); assay: Substrates of transporters of clinical importance in the absorption and disposition of drugs, MDR1
[2] = biological target: Phosphatidylcholine translocator ABCB4 (Homo sapiens, UniProt P21439); assay: Substrates of transporters of clinical importance in the absorption and disposition of drugs, MDR3
Chain of Phosphatidylcholine translocator ABCB4 (P21439 whole entry): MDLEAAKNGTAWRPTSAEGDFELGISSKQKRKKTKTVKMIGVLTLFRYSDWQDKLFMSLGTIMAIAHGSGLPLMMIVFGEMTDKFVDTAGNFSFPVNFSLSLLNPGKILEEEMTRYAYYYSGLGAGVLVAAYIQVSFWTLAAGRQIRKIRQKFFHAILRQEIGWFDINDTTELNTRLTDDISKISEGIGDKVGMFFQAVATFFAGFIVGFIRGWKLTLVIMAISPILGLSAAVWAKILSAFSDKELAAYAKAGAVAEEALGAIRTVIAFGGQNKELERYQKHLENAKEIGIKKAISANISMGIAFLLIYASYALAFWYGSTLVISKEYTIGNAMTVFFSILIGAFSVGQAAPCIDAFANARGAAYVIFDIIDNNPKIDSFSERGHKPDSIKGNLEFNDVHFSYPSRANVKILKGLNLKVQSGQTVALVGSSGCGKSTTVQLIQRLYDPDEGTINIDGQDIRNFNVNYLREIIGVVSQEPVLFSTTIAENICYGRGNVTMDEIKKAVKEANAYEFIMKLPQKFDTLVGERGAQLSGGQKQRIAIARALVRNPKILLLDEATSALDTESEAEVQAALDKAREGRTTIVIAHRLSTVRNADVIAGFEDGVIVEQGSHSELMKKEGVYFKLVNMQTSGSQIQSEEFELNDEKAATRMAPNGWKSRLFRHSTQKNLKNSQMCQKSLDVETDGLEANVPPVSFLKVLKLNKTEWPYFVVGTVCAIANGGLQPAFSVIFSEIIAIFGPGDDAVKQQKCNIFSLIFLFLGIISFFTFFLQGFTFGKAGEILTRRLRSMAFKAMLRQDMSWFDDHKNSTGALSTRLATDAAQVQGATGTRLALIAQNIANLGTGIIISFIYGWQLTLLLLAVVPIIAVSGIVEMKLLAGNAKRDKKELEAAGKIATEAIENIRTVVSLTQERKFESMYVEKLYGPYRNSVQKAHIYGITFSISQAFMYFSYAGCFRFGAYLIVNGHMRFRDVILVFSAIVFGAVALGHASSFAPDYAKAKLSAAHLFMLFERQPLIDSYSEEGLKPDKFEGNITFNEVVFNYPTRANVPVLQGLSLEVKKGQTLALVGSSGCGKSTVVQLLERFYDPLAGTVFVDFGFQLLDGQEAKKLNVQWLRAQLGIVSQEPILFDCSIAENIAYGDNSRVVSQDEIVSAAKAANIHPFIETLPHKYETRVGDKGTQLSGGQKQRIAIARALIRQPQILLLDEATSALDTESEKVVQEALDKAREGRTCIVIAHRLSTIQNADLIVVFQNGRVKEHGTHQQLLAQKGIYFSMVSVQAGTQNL

[3] = biological target: T1, Solute carrier family 22 member 2 (Homo sapiens, UniProt O15244); assay: Inhibitors of transporters of clinical importance in the absorption and disposition of drugs, OCT2
T1 sequence (O15244 whole entry): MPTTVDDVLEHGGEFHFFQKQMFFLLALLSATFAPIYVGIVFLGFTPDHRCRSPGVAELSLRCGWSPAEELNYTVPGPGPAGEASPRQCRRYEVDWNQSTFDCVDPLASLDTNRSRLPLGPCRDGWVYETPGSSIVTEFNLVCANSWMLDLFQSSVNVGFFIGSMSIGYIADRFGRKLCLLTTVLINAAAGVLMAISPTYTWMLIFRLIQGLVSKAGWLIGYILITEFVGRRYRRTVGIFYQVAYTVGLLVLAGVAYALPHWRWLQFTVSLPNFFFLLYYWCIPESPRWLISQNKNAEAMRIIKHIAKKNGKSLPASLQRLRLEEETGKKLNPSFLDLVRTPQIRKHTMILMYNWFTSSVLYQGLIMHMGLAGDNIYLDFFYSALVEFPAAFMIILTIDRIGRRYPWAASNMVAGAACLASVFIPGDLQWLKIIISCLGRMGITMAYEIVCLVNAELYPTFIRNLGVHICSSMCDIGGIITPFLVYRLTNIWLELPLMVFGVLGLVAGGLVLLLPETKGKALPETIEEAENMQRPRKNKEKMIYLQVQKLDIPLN

[4] = biological target: T2, Solute carrier organic anion transporter family member 1B1 (Homo sapiens, UniProt Q9Y6L6); assay: Substrates of transporters of clinical importance in the absorption and disposition of drugs, OATP1B1
T2 sequence (Q9Y6L6 whole entry): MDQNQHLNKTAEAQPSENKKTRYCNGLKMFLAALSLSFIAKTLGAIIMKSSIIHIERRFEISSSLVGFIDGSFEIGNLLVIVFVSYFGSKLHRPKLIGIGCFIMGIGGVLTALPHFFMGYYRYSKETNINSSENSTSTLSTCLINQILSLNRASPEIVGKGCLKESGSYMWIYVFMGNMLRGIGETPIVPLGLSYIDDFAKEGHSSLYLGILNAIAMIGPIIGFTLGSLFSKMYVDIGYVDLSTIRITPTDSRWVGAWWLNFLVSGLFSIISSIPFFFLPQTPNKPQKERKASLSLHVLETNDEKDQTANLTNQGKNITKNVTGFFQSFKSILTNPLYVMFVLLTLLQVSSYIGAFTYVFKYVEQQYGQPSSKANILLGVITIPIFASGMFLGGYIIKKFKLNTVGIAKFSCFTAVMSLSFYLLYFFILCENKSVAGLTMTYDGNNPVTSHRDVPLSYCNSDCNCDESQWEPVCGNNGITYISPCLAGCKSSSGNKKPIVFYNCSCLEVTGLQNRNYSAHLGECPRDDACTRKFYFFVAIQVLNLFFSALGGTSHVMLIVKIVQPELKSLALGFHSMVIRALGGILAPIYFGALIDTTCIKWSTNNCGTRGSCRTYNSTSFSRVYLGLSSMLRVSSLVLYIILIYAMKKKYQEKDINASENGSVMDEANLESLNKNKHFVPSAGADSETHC

[5] = biological target: T3, Solute carrier organic anion transporter family member 1B3 (Homo sapiens, UniProt Q9NPD5); assay: Substrates of transporters of clinical importance in the absorption and disposition of drugs, OATP1B3
T3 sequence (Q9NPD5 whole entry): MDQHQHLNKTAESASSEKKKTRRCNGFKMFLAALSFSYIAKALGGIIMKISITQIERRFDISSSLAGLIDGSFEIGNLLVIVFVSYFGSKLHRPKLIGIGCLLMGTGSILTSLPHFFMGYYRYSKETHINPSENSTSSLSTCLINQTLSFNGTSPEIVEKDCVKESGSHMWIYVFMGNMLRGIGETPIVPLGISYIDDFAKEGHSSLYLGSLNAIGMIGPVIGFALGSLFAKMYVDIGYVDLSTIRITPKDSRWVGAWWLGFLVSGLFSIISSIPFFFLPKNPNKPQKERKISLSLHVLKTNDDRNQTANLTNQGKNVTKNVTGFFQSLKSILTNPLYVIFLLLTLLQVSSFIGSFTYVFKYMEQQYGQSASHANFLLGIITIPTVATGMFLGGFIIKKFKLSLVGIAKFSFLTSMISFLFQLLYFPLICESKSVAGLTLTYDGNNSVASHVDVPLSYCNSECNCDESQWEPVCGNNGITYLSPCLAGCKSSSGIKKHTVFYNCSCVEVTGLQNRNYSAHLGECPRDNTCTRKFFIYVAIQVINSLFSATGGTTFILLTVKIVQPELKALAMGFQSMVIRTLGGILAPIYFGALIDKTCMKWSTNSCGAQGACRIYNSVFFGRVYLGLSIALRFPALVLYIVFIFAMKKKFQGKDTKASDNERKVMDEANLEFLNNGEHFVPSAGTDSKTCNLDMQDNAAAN

[6] = biological target: T4, Solute carrier organic anion transporter family member 1A2 (Homo sapiens, UniProt P46721); assay: Substrates of transporters of clinical importance in the absorption and disposition of drugs, OATP1A2
T4 sequence (P46721 whole entry): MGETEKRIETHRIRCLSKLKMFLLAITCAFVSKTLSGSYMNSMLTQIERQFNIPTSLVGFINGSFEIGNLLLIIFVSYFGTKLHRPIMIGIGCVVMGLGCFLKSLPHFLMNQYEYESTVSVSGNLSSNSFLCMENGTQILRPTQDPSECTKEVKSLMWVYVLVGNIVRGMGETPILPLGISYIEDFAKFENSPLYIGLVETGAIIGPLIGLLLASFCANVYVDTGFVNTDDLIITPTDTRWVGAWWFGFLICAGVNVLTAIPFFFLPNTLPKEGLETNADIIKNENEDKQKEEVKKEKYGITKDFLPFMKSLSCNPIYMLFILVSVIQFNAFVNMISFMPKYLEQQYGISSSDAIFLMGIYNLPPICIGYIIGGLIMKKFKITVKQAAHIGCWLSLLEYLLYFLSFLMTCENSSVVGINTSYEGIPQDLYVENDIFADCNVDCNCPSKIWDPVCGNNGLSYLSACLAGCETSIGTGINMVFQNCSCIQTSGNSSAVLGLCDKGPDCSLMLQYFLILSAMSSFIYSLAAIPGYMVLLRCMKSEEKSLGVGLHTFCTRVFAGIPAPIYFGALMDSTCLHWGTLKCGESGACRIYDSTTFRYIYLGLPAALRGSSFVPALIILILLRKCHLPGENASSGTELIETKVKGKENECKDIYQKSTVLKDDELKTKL

[7] = biological target: T5, Solute carrier organic anion transporter family member 2B1 (Homo sapiens, UniProt O94956); assay: Substrates of transporters of clinical importance in the absorption and disposition of drugs, OATP2B1
T5 sequence (O94956 whole entry): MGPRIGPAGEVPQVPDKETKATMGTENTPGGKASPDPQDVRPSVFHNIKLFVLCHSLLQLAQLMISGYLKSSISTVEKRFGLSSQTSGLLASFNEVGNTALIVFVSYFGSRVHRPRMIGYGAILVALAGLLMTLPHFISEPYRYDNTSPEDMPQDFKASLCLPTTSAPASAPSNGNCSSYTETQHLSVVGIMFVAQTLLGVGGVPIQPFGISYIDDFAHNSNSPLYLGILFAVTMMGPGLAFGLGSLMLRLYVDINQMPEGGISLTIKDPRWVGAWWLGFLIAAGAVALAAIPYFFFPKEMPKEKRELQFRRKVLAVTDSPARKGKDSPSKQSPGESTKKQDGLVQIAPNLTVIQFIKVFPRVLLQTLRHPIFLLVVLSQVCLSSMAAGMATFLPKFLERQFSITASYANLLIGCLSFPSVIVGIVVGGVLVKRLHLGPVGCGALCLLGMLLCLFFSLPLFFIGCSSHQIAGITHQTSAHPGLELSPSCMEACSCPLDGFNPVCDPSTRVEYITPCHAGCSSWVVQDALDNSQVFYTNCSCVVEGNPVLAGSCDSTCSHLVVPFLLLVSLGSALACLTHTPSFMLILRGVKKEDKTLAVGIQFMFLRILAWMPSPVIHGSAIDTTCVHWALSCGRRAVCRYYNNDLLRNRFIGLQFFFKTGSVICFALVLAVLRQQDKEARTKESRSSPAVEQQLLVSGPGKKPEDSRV

[8] = biological target: T6, Organic anion transporter 3 (Homo sapiens, UniProt Q8TCC7); assay: Substrates of transporters of clinical importance in the absorption and disposition of drugs, OAT3
T6 sequence (Q8TCC7 whole entry): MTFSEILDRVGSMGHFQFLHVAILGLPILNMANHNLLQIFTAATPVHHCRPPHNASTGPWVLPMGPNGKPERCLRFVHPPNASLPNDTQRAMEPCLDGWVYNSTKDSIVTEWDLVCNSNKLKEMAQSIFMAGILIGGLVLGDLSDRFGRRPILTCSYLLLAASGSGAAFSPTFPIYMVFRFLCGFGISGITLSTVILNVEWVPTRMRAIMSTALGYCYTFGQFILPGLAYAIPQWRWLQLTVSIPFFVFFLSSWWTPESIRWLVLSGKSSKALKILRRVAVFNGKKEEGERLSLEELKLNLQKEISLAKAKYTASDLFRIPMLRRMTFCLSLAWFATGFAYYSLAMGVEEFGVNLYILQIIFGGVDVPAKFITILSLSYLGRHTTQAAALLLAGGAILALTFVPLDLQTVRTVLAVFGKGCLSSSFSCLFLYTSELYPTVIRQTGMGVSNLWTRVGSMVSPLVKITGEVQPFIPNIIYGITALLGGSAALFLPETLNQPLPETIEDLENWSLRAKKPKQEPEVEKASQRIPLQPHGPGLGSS

[9] = biological target: T1, Solute carrier family 22 member 2; assay: Substrates of transporters of clinical importance in the absorption and disposition of drugs, OCT2
[10] = biological target: T7, Solute carrier family 22 member 1 (Homo sapiens, UniProt O15245); assay: Substrates of transporters of clinical importance in the absorption and disposition of drugs, OCT1
T7 sequence (O15245 whole entry): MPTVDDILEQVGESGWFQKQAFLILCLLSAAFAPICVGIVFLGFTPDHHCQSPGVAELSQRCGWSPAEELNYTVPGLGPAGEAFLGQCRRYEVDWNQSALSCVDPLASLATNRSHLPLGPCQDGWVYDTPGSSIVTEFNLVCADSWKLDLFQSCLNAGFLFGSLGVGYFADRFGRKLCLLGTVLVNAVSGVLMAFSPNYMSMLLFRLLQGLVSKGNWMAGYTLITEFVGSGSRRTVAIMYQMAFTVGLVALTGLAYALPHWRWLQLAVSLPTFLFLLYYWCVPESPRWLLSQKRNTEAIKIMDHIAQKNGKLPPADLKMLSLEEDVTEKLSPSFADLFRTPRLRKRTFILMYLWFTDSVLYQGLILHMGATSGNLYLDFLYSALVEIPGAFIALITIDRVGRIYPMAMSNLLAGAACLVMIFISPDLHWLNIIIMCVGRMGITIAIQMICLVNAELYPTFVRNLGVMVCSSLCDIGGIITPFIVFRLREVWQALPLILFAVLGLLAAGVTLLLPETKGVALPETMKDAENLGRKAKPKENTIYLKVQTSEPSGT

Chain of ATP-dependent translocase ABCB1 (P08183 whole entry): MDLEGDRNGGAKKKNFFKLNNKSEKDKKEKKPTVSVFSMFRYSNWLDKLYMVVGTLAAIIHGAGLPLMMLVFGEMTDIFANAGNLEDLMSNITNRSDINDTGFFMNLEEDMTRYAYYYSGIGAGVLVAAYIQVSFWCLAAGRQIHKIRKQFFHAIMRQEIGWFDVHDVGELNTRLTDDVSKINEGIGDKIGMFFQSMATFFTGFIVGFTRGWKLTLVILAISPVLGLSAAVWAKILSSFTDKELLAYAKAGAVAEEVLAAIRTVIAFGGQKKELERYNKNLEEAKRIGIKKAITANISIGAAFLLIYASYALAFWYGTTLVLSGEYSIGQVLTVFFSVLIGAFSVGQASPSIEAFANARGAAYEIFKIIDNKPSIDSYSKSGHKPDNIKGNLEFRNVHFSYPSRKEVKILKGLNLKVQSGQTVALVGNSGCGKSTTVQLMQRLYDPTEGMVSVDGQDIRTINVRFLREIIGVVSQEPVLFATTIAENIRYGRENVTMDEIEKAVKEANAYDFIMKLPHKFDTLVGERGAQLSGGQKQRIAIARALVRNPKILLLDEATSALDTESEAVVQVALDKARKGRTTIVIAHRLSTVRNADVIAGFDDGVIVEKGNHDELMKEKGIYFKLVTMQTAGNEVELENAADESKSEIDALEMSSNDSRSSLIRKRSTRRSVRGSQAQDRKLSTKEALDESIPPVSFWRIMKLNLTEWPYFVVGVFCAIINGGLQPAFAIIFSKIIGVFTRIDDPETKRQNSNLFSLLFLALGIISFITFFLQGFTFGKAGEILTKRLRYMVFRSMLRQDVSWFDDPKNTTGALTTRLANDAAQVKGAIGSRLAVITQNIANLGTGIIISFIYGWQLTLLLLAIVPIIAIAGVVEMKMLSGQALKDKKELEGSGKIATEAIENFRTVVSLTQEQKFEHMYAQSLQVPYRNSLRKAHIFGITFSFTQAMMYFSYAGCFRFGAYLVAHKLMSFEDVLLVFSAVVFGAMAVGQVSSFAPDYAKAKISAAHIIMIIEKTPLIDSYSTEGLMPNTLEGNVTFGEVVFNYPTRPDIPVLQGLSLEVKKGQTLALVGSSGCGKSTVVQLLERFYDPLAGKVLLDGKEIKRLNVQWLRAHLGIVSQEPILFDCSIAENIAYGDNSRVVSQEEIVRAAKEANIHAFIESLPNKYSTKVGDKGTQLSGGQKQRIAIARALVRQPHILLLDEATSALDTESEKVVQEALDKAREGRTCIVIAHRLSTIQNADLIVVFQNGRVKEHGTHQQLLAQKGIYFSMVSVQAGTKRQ

**Q.** For `CC(=O)O[C@H]1C(=O)[C@@]2(C)[C@H]([C@H](OC(=O)c3ccccc3)[C@]3(O)C[C@H](OC(=O)[C@H](O)[C@@H](NC(=O)c4ccccc4)c4ccccc4)C(C)=C1C3(C)C)[C@]1(OC(C)=O)CO[C@@H]1C[C@@H]2O` [PACLITAXEL], which Activity [1] is on record?
**A.** transporter substrate

**Q.** What about the Activity [2] of the same compound?
**A.** transporter substrate

**Q.** How did the Activity [1] turn out when `C[C@H]1O[C@@H](O[C@H]2[C@@H](O)C[C@H](O[C@H]3[C@@H](O)C[C@H](O[C@H]4CC[C@@]5(C)[C@H](CC[C@@H]6[C@@H]5C[C@@H](O)[C@]5(C)[C@@H](C7=CC(=O)OC7)CC[C@]65O)C4)O[C@@H]3C)O[C@@H]2C)C[C@H](O)[C@@H]1O` [DIGOXIN] was run?
**A.** transporter substrate

**Q.** What about the Activity [2] of the same compound?
**A.** transporter substrate

**Q.** `C[C@]12CC[C@H]3[C@@H](CCC4=CC(=O)CC[C@@]43C)[C@@H]1CC[C@@H]2O` [TESTOSTERONE] was tested. Which Activity [3] did it give?
**A.** transporter inhibitor

**Q.** Which Activity [3] does the source give for `O=C(O)COCCN1CCN(C(c2ccccc2)c2ccc(Cl)cc2)CC1` (stereo unspecified) [CETIRIZINE] here?
**A.** transporter inhibitor

**Q.** `CCCCCCCCCCCCCCSCC(=O)OC[C@H](COP(=O)([O-])OCC[N+](C)(C)C)OC(=O)CSCCCCCCCCCCCCCC` [PHOSPHATIDYLCHOLINE] was tested. Which Activity [2] did it give?
**A.** transporter substrate

**Q.** With `CN/C(=N/CCSCc1nc[nH]c1C)NC#N` [CIMETIDINE] as the compound, how does the Activity [3] read?
**A.** transporter inhibitor

**Q.** Which Activity [4] does the source give for `O=C1OC(c2ccc(O)c(S(=O)(=O)[O-])c2)(c2ccc(O)c(S(=O)(=O)[O-])c2)c2c(Br)c(Br)c(Br)c(Br)c21.[Na+].[Na+]` [SULFOBROMOPHTHALEIN SODIUM] here?
**A.** transporter substrate

**Q.** And the Activity [5]?
**A.** transporter substrate

**Q.** What about the Activity [6] of the same compound?
**A.** transporter substrate

**Q.** And the Activity [7]?
**A.** transporter substrate

**Q.** Which Activity [3] does the source give for `Cc1cccc(C)c1NC(=O)CC12CCCN1CCC2` [PILSICAINIDE] here?
**A.** transporter inhibitor

**Q.** How did the Activity [4] turn out when `C[C@]12CC[C@@H]3c4ccc(OS(=O)(=O)O)cc4CC[C@H]3[C@@H]1CCC2=O` [ESTRONE SULFURIC ACID] was run?
**A.** transporter substrate

**Q.** What about the Activity [8] of the same compound?
**A.** transporter substrate

**Q.** And the Activity [6]?
**A.** transporter substrate

**Q.** What about the Activity [7] of the same compound?
**A.** transporter substrate

**Q.** What does the source list for OXALIPLATIN?
**A.** Activity [9]: transporter substrate; Activity [10]: transporter substrate

**Q.** With `CC[C@]1(O)C[C@@H]2CN(CCc3c([nH]c4ccccc34)[C@@](C(=O)OC)(c3cc4c(cc3OC)N(C)[C@H]3[C@@](O)(C(=O)OC)[C@H](OC(C)=O)[C@]5(CC)C=CCN6CC[C@]43[C@@H]65)C2)C1` [VINBLASTINE] as the compound, how does the Activity [1] read?
**A.** transporter substrate

**Q.** And the Activity [2]?
**A.** transporter substrate
